The text below walks through data of ChEMBL document CHEMBL1649220, “New variant of CTX-M-type extended-spectrum beta-lactamases, CTX-M-71, with a Gly238Cys substitution in a Klebsiella pneumoniae isolate from Bulgaria” (2009).

Test [1] deals with T1, Extended spectrum beta-lactamase CTX-M-71 (Klebsiella pneumoniae) (UniProt C8YUV9).
T1 sequence (whole entry): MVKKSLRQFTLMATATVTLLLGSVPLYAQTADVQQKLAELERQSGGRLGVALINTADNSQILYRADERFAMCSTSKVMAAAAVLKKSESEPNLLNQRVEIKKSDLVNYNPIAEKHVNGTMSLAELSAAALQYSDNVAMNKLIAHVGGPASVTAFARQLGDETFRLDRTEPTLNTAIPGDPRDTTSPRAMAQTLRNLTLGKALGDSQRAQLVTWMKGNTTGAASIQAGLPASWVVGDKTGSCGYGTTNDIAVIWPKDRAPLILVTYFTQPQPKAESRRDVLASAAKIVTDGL
Put plainly: Ratio of Kcat to Km for Klebsiella pneumoniae AH24-270 CTX-M-71 beta-lactamase. On the set-up: unit not given here.

Test [2] deals with Beta-lactamase AH27 CTX-M-15 (Klebsiella pneumoniae) (UniProt Q2PUH3). The experiment in a line: Ratio of Kcat to Km for Klebsiella pneumoniae AH27 CTX-M-15 beta-lactamase. Further details: unit not given here.

Turning to `O=C(Cc1cccs1)N[C@@H]1C(=O)N2C(C(=O)[O-])=C(C[n+]3ccccc3)CS[C@H]12`, the Ratio in test [1] turned out to be 3.8; in test [2] it was 4.82.
For `CC1(C)S[C@@H]2[C@H](NC(=O)Cc3ccccc3)C(=O)N2[C@H]1C(=O)O`, the Ratio was 11.8 in test [1] and 5.4 in test [2].
For `CC1(C)S[C@@H]2[C@H](NC(=O)[C@H](N)c3ccc(O)cc3)C(=O)N2[C@H]1C(=O)O`, the Ratio in test [1] came out at 9.4.
Turning to `CO/N=C(\C(=O)N[C@@H]1C(=O)N2C(C(=O)O)=C(COC(N)=O)CS[C@H]12)c1ccco1`, the Ratio was 0.1 in test [1] and 0.25 in test [2].
For `CC(C)(O/N=C(\C(=O)N[C@@H]1C(=O)N2C(C(=O)[O-])=C(C[n+]3ccccc3)CS[C@H]12)c1csc(N)n1)C(=O)O`, the values for the Ratio in test [1] and in test [2] were 0.0038 and 0.0186, respectively.
As for `CO/N=C(\C(=O)N[C@@H]1C(=O)N2C(C(=O)O)=C(COC(C)=O)CS[C@H]12)c1csc(N)n1`, the Ratio in test [1] is 0.5; in test [2], 6.77.
As to `CCN1CCN(C(=O)N[C@@H](C(=O)N[C@@H]2C(=O)N3[C@@H]2SC(C)(C)[C@@H]3C(=O)O)c2ccccc2)C(=O)C1=O`, the Ratio in test [1] is 8.4.
Consider `C[C@H]1[C@H](NC(=O)/C(=N\OC(C)(C)C(=O)O)c2csc(N)n2)C(=O)N1S(=O)(=O)O`, for which the Ratio in test [1] turned out to be 0.084.
